The record followed here is patent publication US6743413B1, “Suspension aerosol formulations” (3M Company, priority 1991, dated 2004).

Assay type in all cases: physicochemical
Data set [1] can be described thus: Visual assessment of suspension formulations by time lapse photography 10 and 30 seconds after agitation. Further details: key: + = visually acceptable formulation; − = visually unacceptable formulation; ? = border line acceptable formulation. The method, then: (§1) For each of the micronized drug substances A-G set forth below, formulations were prepared at drug concentrations of 0.017 percent, 0.039 percent, 0.083 percent, 0.41 percent, and 1.6 percent by weight based on the total weight of the formulation (corresponding to 0.20 mg/mL, 0.50 mg/mL, 1.0 mg/mL, 5.0 mg/Ml, and 20 mg/mL, respectively). The formulations were prepared by dispersing micronized drug in HFC 134a in a sealed 15 mL clear PET vial using ultrasonic energy.
Using time lapse photography 10 and 30 seconds after agitation the formulations were assessed as follows: […]
The formulations were photographed using time lapse photography at 10 and 30 seconds post agitation and were assessed as follows: […]

A short description of data set [2]: Visual observation of suspension aerosol formulations (dispersion, flocculation, settling, creaming, suitability for metered dose inhaler). The settings on record: for homogeneity of suspension: Example 1: 1.6 percent in HFC 134a. The method, then: as §1
For each propellant mix the range of drug concentrations used in Example 1 was used.
BDP formulations were prepared at 0.070 percent by weight (1.0 mg/mL) in HFC 227 and at 0.38 percent by weight (5.0 mg/mL) in a 1:1 mixture of HFC 227 and HFC 134a.
Formulations of salmeterol free base at 0.02 percent by weight and 0.05 percent by weight were prepared in HFC 134a and in HFC 227 by placing the drug and 5 mL of glass beads into a 15 mL glass vial, crimping on a continuous valve, and adding the appropriate amount of propellant. The formulations were shaken on a paint shaker for 10 min in order to disperse the drug.
The vial was then shaken on a paint shaker, chilled, and the contents transferred to 10 mL vials fitted with the metered dose valve. […] Valve delivery was measured through the life of the formulations.

The nature of data set [3]: Respirable fraction (Anderson Cascade Impactor). The method, then:
In this assay the respirable fraction (the percent by weight of particles having an aerodynamic particle size of less than 4.7 microns) of the aerosol suspension is determined using an Anderson Cascade Impactor (available from Anderson Sampler Inc,; Atlanta, Ga.).
The aerosol vial to be tested is primed five times. The valve and valve stem are then cleaned with methanol and dried with compressed air. The aerosol vial and a clean, dry actuator are coupled to the glass throat attached to the top of the impactor using an appropriate firing adaptor. The calibrated vacuum pump (28.3 L/min) attached to the cascade impactor is turned on. A total of 20 sprays is delivered into the cascade impactor by repeatedly shaking the vial, seating it in the actuator and immediately delivering a single spray. The time between sprays is approximately 30 seconds. The cascade impactor is disassembled and each component is rinsed separately with diluent (55 parts methanol mixed with 45 parts of 0.1 percent aqueous phosphoric acid, v/v). Each solution is analyzed for pirbuterol acetate content using high performance liquid chromatography. The respirable fraction is calculated as follows:
% respirable=drug recovered from plates 3-7×100 total drug−drug recovered from recovered actuator and valve
In Examples 13-14 below respirable fraction is determined using the test method described above but using a diluent of 45 parts by volume methanol and 55 parts by volume of 0.1 percent aqueous phosphoric acid.

[4] abbreviates: Example 1: drug concentration 0.017 % in HFC 134a alone.
Where [5] appears, read: Example 1: drug concentration 0.039 % in HFC 134a alone.
Where [6] appears, read: Example 1: drug concentration 0.083 % in HFC 134a alone.
[7] abbreviates: Example 1: drug concentration 0.41 % in HFC 134a alone.
[8] abbreviates: Example 1: drug concentration 1.63 % in HFC 134a alone.
Setting [9] is: Example 4: 0.070 percent in HFC 227.
[10] abbreviates: Example 4: 0.38 percent in 1:1 HFC 134a/HFC 227.
Setting [11] is: Example 5: 0.02 and 0.05 percent by weight in HFC 134a and in HFC 227.

“And” between values parts separate entries of the source, which are not always exact repeats. Equal values may be shown once.

Regarding `CC(C)(C)NCC(O)c1ccc(O)c(CO)c1` (stereo not drawn) [Albuterol], the “visual assessment of formulation” value in data set [1] (setting [4]) is given as “+”; in data set [1] (setting [5]), “+”; in data set [1] (setting [6]), “?”; in data set [1] (setting [7]) it was “−”; in data set [1] (setting [8]), “+”. Also, the homogeneity of suspension entry in data set [2] is reported as “particularly homogenous suspensions”.
`CCC(=O)OCC(=O)[C@@]1(OC(=O)CC)[C@@H](C)C[C@H]2[C@@H]3CCC4=CC(=O)C=C[C@]4(C)[C@@]3(Cl)[C@@H](O)C[C@@]21C` [Beclomethasone dipropionate]: the “visual assessment of formulation” value in data set [1] (setting [4]) is listed as “+”; in data set [1] (setting [5]), “+”; in data set [1] (setting [6]), “?”; in data set [1] (setting [7]), “−”; in data set [1] (setting [8]), “+”. The homogeneity of suspension result in data set [2] is “particularly homogenous suspensions”. Further, the dispersion result in data set [2] (setting [9]) is on record as “fairly well dispersed”. Besides, in data set [2] (setting [9]), the “time of flocculation after shaking” value was “about 10 seconds”. For the same molecule, the flocculation entry in data set [2] (setting [10]) was “flocculation was rapid”. For the same molecule, in data set [2] (setting [10]), the “settling or creaming of flocs” value is “the flocs neither settled nor creamed”.
For the molecule `O=C([O-])c1cc(=O)c2c(OCC(O)COc3cccc4oc(C(=O)[O-])cc(=O)c34)cccc2o1.[Na+].[Na+]` [Disodium cromoglycate], the “visual assessment of formulation” value in data set [1] (setting [4]) is on record as “+”; in data set [1] (setting [5]), “+”; in data set [1] (setting [6]), “?”; in data set [1] (setting [7]), “−”; in data set [1] (setting [8]), “−”. Moreover, the homogeneity of formulation entry in data set [2] (Example 2: 0.015, 0.035 and 0.070 percent by weight in HFC 227, no surfactant) is “particularly homogenous”. Further, in data set [2] (Example 2: 0.35 percent and 1.4 percent in HFC 227, no surfactant), the flocculation and sedimentation result was “more rapid flocculation and sedimentation”.
As for `OCc1cc(C(O)CNCCCCCCOCCCCc2ccccc2)ccc1O` (stereo not drawn) [salmeterol free base, salmeterol], in data set [2] (setting [11]), the creaming entry is reported as “cream in both propellants, more so in HFC 227 than in HFC 134a”; the flocculation result is listed as “Flocculation was also apparent”; the “suitability for metered dose inhaler” value is “deemed suitable for use in connection with a metered dose inhaler”.
Take Albuterol sulfate: the “visual assessment of formulation” value in data set [1] (setting [4]) is recorded as “+”; in data set [1] (setting [5]), “+”; in data set [1] (setting [6]), “+”; in data set [1] (setting [7]) it was “−”; in data set [1] (setting [8]) it was “−”. Also, the homogeneity of formulation result in data set [2] (Comparative Example: CFC propellant mixes A and B (Propellants 11/114/12), no surfactant, 0.20, 0.50 and 1.0 mg/mL) is “acceptably homogenous”. Also, the “caking of drug on container walls” value in data set [2] (Comparative Example: CFC propellant mixes A and B versus HFC 134a counterparts of Example 1) is recorded as “more caking of drug on the walls of the container than their HFC 134a counterparts”. Further, in data set [2] (Comparative Example: CFC propellant mixes A and B, no surfactant, 5.0 and 20 mg/mL), the flocculation entry is on record as “relatively rapid flocculation”. In data set [2] (Example 15: 0.37 percent albuterol sulfate, 0.10 percent sorbitan trioleate, 9.95 percent ethanol, 89.58 percent HFC 227), the “suitability for metered dose inhaler” value is “deemed to be suitable for use in connection with a metered dose inhaler”. The “respirable fraction (aerodynamic particle size less than 4.7 microns)” value in data set [3] (Example 13: 0.4 percent by weight albuterol sulfate in HFC 227, duplicate, two vials) was 69.3% and 60.6% and 64.0% and 63.0%; in data set [3] (Example 14: 0.40 percent albuterol sulfate, 0.50 percent oleic acid, 15.0 percent ethanol, HFC 227, duplicate, two vials) it was 28.0% and 22.0% and 27.1% and 28.8%.
As for Pirbuterol acetate, the “visual assessment of formulation” value in data set [1] (setting [4]) is on record as “+”; in data set [1] (setting [5]) it was “+”; in data set [1] (setting [6]), “?”; in data set [1] (setting [7]), “?”; in data set [1] (setting [8]) it was “+”. The “suitability for metered dose inhaler” value in data set [2] (Example 9: 0.9 percent by weight pirbuterol acetate in HFC 227) is listed as “deemed to be suitable for use in connection with a metered dose inhaler”; in data set [2] (Example 10: 0.90 percent pirbuterol acetate, 0.23 percent oleic acid, 10.0 percent ethanol, HFC 227), “deemed to be suitable for use in connection with a metered dose inhaler”. The “respirable fraction (aerodynamic particle size less than 4.7 microns)” value in data set [3] (Example 11: 0.9 percent by weight pirbuterol acetate in HFC 227, duplicate, two vials) is 59.1% and 54.8% and 53.9% and 49.3%; in data set [3] (Example 12: 0.9 percent pirbuterol acetate, 10 percent ethanol, HFC 227, duplicate, two vials), 34.9% and 32.5% and 31.7% and 31.3%; in data set [3] (Example 16: 0.9 percent pirbuterol acetate, 3 percent ethanol, HFC 227, two separate vials) it was 59.8% and 52.8%; in data set [3] (Example 17: 0.9 percent pirbuterol acetate, 5 percent ethanol, HFC 227, two separate vials) it was 48.2% and 43.5%.
